# Source: patent US20210260102A1, “TUNABLE IMMUNE RESPONSIVE BIODEGRADABLE ARGININE-BASED POLY(ESTER AMIDE)S AND METHODS OF MAKING AND USING SAME” (Cornell University, priority 2018, published 2021)
# Assays:
# [1] = neutral pH; cited from earlier work
# RAW 264.7 cells [2] = assay: Arginase activity assay of treated macrophages; details: 2 mg/mL, 24 h
# Procedure: 4×10^5 RAW 264.7 cells in each well were incubated in 400 μL DMEM media contains 10% FBS in 24 well plates for 24 h. […] For CAM or AAM group, treatments contained either 100 U/mL recombinant mouse interferon-γ (IFN-γ, 1.25×10^7 U/mg, Shenandoah Biotechnology, PA) plus 100 ng/mL lipopolysaccharide (LPS, Sigma-Aldrich) or 20 ng/mL recombinant mouse interleukin-4 (IL-4, Shenandoah Biotechnology, PA) respectively to induce different activation phenotype. Resting Macrophages, CAM and AAM incubated in DMEM contains 5% FBS without treatments were used as controls.
# The arginase activity assay is tested colorimetrically. The cells were washed with PBS and lysed by 200 μL 0.2% Triton X-100 in 20 mM Tris-HCl, pH 7.5 containing 20 g pepstatin A, 20 μg aprotinin and 20 μg leupeptin as protease inhibitors. After the cell was lysed, 200 μL 10 mM MnCl2 was added and the enzyme was activated for 10 minutes at 55° C. 100 μL aliquot of the activated lysate was mixed with 100 μL 0.5 M Arg and incubated at 37° C. for 1 h. […] After being cooled to room temperature, the absorbance of 200 μL mixture solution at 540 nm was tested in 96 well plates. […] The NO production and the arginase activity in three replicate wells of each condition were tested and the mean value was calculated with standard deviations.
# RAW 264.7 cells [3] = assay: NO production of macrophages (Griess reagent); type: cell-based, murine; details: CAM (LPS+IFN-γ), 24 h
Molecule,water solubility [1],arginase activity of CAM (RAW 264.7 cells [2]),NO production of CAM (RAW 264.7 cells [3]; 1 mg/mL),NO production of CAM (RAW 264.7 cells [3]; 2 mg/mL)
N-nitro-L-arginine [NOArg],~870 µg/mL,–,–,–
"N=C(N)NCCC[C@H](N)C(=O)O [Arg, L-arginine]",–,17.9±0.7 U,42.5 ± 2.6 µM,50.7 ± 1.1 µM
